ChEMBL document CHEMBL5696441 (Nat Chem Biol, 2011)

Tests used:
[1] = target: cAMP-dependent protein kinase catalytic subunit beta (Homo sapiens) (UniProt P22694); test: Inhibition of PKAC-beta (unknown origin) assessed as remaining activity at 1 uM by Kinome scan method relative to control
[2] = target: Dual specificity mitogen-activated protein kinase kinase 4 (Homo sapiens) (UniProt P45985); test: Inhibition of MEK4 (unknown origin) assessed as remaining activity at 1 uM by Kinome scan method relative to control
[3] = target: Dual specificity mitogen-activated protein kinase kinase 2 (Homo sapiens) (UniProt P36507); test: Inhibition of MEK2 (unknown origin) assessed as remaining activity at 1 uM by Kinome scan method relative to control
Sequence of Dual specificity mitogen-activated protein kinase kinase 2 (Homo sapiens) (P36507 whole entry, canonical isoform): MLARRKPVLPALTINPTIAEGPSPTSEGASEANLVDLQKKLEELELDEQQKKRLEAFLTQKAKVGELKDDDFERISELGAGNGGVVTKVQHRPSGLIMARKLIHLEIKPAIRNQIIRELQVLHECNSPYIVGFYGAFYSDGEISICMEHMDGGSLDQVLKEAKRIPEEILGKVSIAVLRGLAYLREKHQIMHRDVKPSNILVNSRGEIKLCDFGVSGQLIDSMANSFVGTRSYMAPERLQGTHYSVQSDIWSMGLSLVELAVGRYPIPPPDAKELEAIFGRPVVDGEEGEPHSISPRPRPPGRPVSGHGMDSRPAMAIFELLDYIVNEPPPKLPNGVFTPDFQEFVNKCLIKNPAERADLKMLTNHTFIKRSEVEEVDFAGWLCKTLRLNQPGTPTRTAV

[4] = target: Phosphorylase b kinase gamma catalytic chain, skeletal muscle/heart isoform (Homo sapiens) (UniProt Q16816); test: Inhibition of PHKG1 (unknown origin) assessed as remaining activity at 1 uM by Kinome scan method relative to control
Sequence of Phosphorylase b kinase gamma catalytic chain, skeletal muscle/heart isoform (Homo sapiens) (Q16816 whole entry, looked up, canonical isoform): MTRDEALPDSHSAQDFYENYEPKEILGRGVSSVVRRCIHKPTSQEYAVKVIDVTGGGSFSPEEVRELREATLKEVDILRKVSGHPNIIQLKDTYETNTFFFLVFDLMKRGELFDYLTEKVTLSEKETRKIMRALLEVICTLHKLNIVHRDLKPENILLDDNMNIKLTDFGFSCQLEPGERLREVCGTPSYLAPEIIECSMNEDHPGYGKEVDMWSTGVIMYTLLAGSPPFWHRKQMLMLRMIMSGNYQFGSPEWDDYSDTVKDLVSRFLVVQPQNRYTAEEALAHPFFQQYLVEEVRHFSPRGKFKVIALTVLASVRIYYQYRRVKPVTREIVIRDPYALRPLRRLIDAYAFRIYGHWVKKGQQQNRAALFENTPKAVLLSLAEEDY

[5] = target: Cyclin-dependent kinase 9 (Homo sapiens) (UniProt P50750); test: Inhibition of CDK9 (unknown origin) assessed as remaining activity at 1 uM by Kinome scan method relative to control
Sequence of Cyclin-dependent kinase 9 (Homo sapiens) (P50750 whole entry): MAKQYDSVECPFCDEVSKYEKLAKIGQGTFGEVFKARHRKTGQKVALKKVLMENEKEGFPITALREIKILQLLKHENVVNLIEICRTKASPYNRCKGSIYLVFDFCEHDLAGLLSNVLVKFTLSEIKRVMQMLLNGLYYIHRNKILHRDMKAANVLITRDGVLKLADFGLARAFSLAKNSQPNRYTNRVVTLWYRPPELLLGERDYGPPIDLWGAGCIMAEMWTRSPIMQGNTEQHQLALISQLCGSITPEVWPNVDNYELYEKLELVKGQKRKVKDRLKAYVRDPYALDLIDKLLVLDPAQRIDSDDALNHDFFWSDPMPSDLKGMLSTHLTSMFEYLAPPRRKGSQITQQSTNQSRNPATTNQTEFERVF

[6] = target: Serine/threonine-protein kinase PLK3 (Homo sapiens) (UniProt Q9H4B4); test: Inhibition of PLK3 (unknown origin) assessed as remaining activity at 1 uM by Kinome scan method relative to control
[7] = target: Cyclin-dependent kinase 11A (Homo sapiens) (UniProt Q9UQ88); test: Inhibition of CDC2L2 (unknown origin) assessed as remaining activity at 1 uM by Kinome scan method relative to control
Sequence of Cyclin-dependent kinase 11A (Homo sapiens) (Q9UQ88 whole entry): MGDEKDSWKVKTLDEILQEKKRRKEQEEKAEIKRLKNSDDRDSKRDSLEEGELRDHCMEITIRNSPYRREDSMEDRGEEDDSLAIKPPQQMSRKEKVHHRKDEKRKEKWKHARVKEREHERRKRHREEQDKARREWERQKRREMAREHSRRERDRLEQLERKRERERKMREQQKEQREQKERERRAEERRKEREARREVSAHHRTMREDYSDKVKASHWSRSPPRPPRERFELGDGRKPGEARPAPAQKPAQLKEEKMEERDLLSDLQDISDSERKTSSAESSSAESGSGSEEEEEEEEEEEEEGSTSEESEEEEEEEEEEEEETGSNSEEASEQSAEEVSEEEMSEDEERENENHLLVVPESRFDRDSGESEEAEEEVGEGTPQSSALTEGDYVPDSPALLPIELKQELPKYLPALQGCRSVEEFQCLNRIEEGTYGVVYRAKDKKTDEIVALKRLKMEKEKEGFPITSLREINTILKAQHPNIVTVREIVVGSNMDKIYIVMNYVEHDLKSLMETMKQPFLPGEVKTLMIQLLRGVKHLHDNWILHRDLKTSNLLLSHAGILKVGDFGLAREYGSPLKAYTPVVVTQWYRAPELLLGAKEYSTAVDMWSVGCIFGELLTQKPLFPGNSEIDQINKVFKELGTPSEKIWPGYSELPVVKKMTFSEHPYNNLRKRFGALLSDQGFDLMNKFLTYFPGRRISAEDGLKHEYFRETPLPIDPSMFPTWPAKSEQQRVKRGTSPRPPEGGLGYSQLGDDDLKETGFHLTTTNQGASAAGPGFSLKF

[8] = target: T1, Aurora kinase C (Homo sapiens) (UniProt Q9UQB9); test: Inhibition of AURKC (unknown origin) assessed as remaining activity at 1 uM by Kinome scan method relative to control
T1 sequence (whole entry): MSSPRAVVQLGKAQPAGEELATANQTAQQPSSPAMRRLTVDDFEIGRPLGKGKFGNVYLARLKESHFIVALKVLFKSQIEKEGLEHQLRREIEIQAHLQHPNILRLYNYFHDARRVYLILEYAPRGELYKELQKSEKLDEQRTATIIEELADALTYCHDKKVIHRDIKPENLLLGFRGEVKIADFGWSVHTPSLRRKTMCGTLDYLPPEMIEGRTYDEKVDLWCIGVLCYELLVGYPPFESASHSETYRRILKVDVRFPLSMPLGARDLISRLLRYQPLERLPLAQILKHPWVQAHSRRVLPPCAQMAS

[9] = target: Serine/threonine-protein kinase 32C (Homo sapiens) (UniProt Q86UX6); test: Inhibition of YANK3 (unknown origin) assessed as remaining activity at 1 uM by Kinome scan method relative to control
Sequence of Serine/threonine-protein kinase 32C (Homo sapiens) (Q86UX6 whole entry): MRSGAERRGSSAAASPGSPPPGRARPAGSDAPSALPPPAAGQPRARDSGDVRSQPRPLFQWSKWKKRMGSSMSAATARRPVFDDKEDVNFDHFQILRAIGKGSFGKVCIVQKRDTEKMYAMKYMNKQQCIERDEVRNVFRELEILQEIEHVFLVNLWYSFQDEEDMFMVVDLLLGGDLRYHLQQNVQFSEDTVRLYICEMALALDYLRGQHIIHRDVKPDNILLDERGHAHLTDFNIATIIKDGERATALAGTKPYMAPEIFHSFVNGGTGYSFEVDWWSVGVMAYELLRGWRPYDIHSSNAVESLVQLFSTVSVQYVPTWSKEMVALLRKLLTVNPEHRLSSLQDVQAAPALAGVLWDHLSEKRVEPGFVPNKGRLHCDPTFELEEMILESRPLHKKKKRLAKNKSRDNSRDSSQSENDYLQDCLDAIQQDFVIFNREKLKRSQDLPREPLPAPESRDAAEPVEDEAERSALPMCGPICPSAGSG

[10] = target: Fibroblast growth factor receptor 3 (Homo sapiens) (UniProt P22607); test: Inhibition of FGFR3 (unknown origin) assessed as remaining activity at 1 uM by Kinome scan method relative to control
Sequence of Fibroblast growth factor receptor 3 (Homo sapiens) (P22607 23-806 limits assumed): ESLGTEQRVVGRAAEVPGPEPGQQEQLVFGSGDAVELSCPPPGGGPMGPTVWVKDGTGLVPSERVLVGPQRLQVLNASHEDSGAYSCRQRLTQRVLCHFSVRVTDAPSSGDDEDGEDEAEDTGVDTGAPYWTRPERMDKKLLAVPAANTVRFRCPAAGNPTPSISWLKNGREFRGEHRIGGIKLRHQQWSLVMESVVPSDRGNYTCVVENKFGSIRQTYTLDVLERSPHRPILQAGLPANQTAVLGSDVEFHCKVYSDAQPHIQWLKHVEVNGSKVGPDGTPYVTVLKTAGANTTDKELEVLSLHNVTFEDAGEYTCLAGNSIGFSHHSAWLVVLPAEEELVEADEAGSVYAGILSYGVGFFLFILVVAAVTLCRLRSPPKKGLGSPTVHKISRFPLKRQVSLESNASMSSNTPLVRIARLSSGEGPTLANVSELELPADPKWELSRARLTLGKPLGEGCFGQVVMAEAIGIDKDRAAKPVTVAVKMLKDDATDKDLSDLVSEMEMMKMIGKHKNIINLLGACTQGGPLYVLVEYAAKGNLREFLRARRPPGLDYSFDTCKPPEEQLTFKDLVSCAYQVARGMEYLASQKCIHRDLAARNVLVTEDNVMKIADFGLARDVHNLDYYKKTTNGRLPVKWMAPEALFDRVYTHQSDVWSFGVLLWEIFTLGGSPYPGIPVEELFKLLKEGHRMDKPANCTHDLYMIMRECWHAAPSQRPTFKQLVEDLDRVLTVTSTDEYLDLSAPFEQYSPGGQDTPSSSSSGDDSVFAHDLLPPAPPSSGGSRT

[11] = target: Insulin receptor-related protein (Homo sapiens) (UniProt P14616); test: Inhibition of INSRR (unknown origin) assessed as remaining activity at 1 uM by Kinome scan method relative to control
[12] = target: Serine/threonine-protein kinase N2 (Homo sapiens) (UniProt Q16513); test: Inhibition of PKN2 (unknown origin) assessed as remaining activity at 1 uM by Kinome scan method relative to control
Sequence of Serine/threonine-protein kinase N2 (Homo sapiens) (Q16513 whole entry, looked up, canonical isoform): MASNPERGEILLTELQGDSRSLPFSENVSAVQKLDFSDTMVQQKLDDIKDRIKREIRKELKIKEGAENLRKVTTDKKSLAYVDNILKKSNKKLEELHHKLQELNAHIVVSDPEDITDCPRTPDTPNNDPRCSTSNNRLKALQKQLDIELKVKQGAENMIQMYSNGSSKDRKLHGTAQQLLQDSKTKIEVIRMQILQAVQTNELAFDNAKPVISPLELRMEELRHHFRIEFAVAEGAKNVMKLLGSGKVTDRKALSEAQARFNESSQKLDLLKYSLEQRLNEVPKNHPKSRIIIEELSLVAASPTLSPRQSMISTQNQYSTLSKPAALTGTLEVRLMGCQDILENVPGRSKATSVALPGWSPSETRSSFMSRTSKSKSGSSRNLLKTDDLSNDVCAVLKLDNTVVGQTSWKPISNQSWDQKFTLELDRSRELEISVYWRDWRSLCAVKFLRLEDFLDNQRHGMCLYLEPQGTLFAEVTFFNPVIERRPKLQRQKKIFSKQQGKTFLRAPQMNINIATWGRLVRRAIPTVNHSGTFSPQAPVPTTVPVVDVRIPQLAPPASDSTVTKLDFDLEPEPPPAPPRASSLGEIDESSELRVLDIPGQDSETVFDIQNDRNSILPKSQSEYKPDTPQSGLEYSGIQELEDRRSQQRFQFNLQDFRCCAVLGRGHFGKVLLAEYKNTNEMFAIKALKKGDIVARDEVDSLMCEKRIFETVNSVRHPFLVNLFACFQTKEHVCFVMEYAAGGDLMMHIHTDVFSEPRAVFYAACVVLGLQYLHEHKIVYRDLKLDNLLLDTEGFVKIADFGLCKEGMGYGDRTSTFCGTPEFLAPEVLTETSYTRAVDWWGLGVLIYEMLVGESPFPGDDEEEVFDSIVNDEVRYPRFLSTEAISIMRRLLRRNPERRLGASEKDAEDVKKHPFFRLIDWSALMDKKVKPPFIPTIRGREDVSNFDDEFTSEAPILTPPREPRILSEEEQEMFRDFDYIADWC

[13] = test system: Phosphatidylinositol 4,5-bisphosphate 3-kinase catalytic subunit alpha isoform (Homo sapiens), P42336 [H1047L]; test: Inhibition of PIK3CA H1047L mutant (unknown origin) assessed as remaining activity at 1 uM by Kinome scan method relative to control
[14] = test system: Phosphatidylinositol 4,5-bisphosphate 3-kinase catalytic subunit alpha isoform (Homo sapiens), P42336 [C420R]; test: Inhibition of PIK3CA C420R mutant (unknown origin) assessed as remaining activity at 1 uM by Kinome scan method relative to control
[15] = test system: Tyrosine-protein kinase ABL1 (Homo sapiens), P00519 [F317I]; test: Inhibition of ABL1 F317I mutant (unknown origin) assessed as remaining activity at 1 uM by Kinome scan method relative to control
[16] = target: T2, Serine/threonine-protein kinase PLK4 (Homo sapiens) (UniProt O00444); test: Inhibition of PLK4 (unknown origin) assessed as remaining activity at 1 uM by Kinome scan method relative to control
T2 sequence (whole entry): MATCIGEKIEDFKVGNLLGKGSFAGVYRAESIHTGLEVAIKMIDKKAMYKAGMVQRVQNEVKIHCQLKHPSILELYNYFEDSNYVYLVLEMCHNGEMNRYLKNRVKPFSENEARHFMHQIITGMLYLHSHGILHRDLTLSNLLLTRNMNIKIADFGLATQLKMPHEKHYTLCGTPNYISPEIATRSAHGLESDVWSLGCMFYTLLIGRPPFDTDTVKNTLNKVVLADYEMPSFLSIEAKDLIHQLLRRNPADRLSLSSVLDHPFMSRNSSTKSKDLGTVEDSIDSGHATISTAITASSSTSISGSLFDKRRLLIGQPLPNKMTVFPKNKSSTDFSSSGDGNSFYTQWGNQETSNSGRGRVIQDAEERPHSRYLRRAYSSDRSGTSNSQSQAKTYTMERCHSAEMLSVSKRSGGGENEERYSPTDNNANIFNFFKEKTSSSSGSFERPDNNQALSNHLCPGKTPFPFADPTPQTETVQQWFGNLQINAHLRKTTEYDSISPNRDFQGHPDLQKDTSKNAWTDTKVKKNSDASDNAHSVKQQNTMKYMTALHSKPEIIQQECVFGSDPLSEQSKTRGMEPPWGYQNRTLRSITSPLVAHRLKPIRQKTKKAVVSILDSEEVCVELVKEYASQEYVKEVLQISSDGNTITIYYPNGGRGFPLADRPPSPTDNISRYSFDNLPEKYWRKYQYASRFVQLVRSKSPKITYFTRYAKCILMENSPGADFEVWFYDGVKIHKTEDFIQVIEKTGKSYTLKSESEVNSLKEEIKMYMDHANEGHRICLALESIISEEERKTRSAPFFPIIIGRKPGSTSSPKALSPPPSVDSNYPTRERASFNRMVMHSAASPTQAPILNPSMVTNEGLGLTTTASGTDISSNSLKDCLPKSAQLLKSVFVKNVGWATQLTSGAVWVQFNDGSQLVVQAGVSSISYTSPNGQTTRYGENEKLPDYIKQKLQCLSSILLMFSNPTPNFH

[17] = target: Protein kinase C eta type (Homo sapiens) (UniProt P24723); test: Inhibition of PRKCH (unknown origin) assessed as remaining activity at 1 uM by Kinome scan method relative to control
[18] = target: Ankyrin repeat and protein kinase domain-containing protein 1 (Homo sapiens) (UniProt Q8NFD2); test: Inhibition of ANKK1 (unknown origin) assessed as remaining activity at 1 uM by Kinome scan method relative to control
Sequence of Ankyrin repeat and protein kinase domain-containing protein 1 (Homo sapiens) (Q8NFD2 whole entry, the tested form may be a part): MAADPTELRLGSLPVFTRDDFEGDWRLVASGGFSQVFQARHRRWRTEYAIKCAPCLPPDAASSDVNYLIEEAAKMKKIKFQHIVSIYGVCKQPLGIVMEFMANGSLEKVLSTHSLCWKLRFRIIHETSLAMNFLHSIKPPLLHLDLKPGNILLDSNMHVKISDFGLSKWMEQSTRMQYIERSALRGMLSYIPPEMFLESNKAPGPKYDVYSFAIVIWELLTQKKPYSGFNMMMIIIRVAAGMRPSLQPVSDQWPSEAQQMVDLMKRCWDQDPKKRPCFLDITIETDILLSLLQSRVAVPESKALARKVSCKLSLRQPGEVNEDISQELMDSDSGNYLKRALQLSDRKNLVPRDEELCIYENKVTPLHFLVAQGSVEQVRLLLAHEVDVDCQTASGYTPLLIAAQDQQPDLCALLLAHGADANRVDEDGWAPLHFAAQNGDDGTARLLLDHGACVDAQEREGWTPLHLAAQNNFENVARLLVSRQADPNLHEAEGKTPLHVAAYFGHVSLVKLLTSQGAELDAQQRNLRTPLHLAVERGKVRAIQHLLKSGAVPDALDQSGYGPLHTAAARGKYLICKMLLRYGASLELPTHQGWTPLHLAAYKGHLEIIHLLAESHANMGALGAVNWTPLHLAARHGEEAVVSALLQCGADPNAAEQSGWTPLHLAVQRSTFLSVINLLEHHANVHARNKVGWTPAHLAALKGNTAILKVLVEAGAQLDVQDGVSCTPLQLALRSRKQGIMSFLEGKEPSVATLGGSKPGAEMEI

[19] = target: Activin receptor type-1-like (Homo sapiens) (UniProt P37023); test: Inhibition of ACVRL1 (unknown origin) assessed as remaining activity at 1 uM by Kinome scan method relative to control
[20] = target: Rhodopsin kinase GRK1 (Homo sapiens) (UniProt Q15835); test: Inhibition of GRK1 (unknown origin) assessed as remaining activity at 1 uM by Kinome scan method relative to control

Structure (SMILES) | Activity [1] [%] | Activity [2] [%] | Activity [3] [%] | Activity [4] [%] | Activity [5] [%] | Activity [6] [%] | Activity [7] [%] | Activity [8] [%] | Activity [9] [%] | Activity [10] [%] | Activity [11] [%] | Activity [12] [%] | Activity [13] [%] | Activity [14] [%] | Activity [15] [%] | Activity [16] [%] | Activity [17] [%] | Activity [18] [%] | Activity [19] [%] | Activity [20] [%]
Nc1ccccc1Nc1ccc2c(c1)CCc1ccccc1C2=O | 88 | 64 | 88 | 92 | 93 | 97 | 92 | 91 | 96 | 77 | 88 | 89 | 84 | 91 | 78 | 98 | 90 | 96 | 89 | 84
O=C1c2ccc(Nc3ccc(F)cc3F)cc2CCc2ccc(OC[C@H](O)CO)cc21 [Skepinone-L] | 74 | 78 | 90 | 97 | 100 | 100 | 93 | 90 | 99 | 95 | 100 | 84 | 95 | 100 | 92 | 97 | 90 | 99 | 100 | 76
